Test [1] deals with T1, SMYD3 (Homo sapiens (Human), UniProt Q9H7B4). Put plainly: SMYD3 biochemical assay (SPA, 3H-SAM methylation of MEKK2 protein substrate). The settings on record: read-out: SMYD3 Biochem IC50*. In a few lines:
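Tritium incorporation into GST-MEKK2 is counted by scintillation proximity after citric acid bead capture. Native human SMYD3 is preincubated with test compound for 30 min at room temperature at pH 8.0 (Tris-Cl, TCEP, BSG, Tween 20) before 3H-SAM and substrate are added; cold SAM at 100 uM final stops turnover.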

Test [2] deals with T1, SMYD3. Put plainly: SMYD3 cell assay (Trimethyl-MEKK2 In-Cell Western in 293T/17 cells). It is filed as cell-based. The settings on record: read-out: SMYD3 Cell IC50*. In short, it runs like this: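 In-Cell Western ratio of trimethyl-Lys260 MEKK2 to anti-flag signal; percent inhibition from DMSO and maximum-inhibition controls, IC50 by non-linear regression, triplicates.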

T1 sequence (Q9H7B4 whole entry): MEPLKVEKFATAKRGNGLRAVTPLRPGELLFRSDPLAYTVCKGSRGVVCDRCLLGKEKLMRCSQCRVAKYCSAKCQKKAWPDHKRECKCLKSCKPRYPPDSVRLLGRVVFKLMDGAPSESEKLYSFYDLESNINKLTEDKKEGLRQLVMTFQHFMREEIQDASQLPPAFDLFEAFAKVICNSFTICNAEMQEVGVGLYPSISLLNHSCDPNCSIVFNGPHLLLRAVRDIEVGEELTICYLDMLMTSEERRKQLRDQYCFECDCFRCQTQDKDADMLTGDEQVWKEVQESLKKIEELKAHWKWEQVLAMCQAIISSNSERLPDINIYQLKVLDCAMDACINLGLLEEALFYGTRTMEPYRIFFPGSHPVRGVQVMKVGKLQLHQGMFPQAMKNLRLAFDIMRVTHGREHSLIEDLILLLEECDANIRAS

For the compound `CC(C)CCN(C)C1CCN(S(=O)(=O)N2[C@@H]3CC[C@H]2C[C@@H](NC(=O)c2cc(C4CC4)on2)C3)CC1` [compound 846, 5-cyclopropyl-N-((1R,3r,5S)-8-((4-(isopentyl(methyl)amino)piperidin-1-yl)sulfonyl)-8-azabicyclo[3.2.1]octan-3-yl)isoxazole-3-carboxamide], the IC50 (as a rule, the concentration at which inhibition is half-maximal) at SMYD3 [1] turned out to be 5.36 nM; on SMYD3 [2], 80.2 nM.
For `C[C@H]1C[C@@H](NC(=O)c2cc(C3CC3)on2)CCN1S(=O)(=O)N1CCC(N2CCCC2)CC1` [compound 847, 5-cyclopropyl-N-((2S,4S)-2-methyl-1-((4-(pyrrolidin-1-yl)piperidin-1-yl)sulfonyl)piperidin-4-yl)isoxazole-3-carboxamide] the same measures were 5.53 nM and 75.8 nM.
For `O=C(N[C@H]1C[C@H]2CC[C@@H](C1)N2S(=O)(=O)N1CCC(NCc2ccc(F)cc2)CC1)c1cc(C2CC2)on1` [compound 848, 5-cyclopropyl-N-((1R,3r,5S)-8-((4-((4-fluorobenzyl)amino)piperidin-1-yl)sulfonyl)-8-azabicyclo[3.2.1]octan-3-yl)isoxazole-3-carboxamide], the 50% inhibitory concentration (IC50) on SMYD3 [1] worked out at 5.73 nM; on SMYD3 [2] it was 153 nM.
As for `O=C(N[C@H]1C[C@H]2CC[C@@H](C1)N2S(=O)(=O)N1CCC2(CCN2)CC1)c1cc(C2CC2)on1` [compound 849, N-((1R,3r,5S)-8-((1,7-diazaspiro[3.5]nonan-7-yl)sulfonyl)-8-azabicyclo[3.2.1]octan-3-yl)-5-cyclopropylisoxazole-3-carboxamide], the IC50 stood at 5.95 nM at SMYD3 [1] and 62 nM on SMYD3 [2].
As to `O=C(N[C@H]1C[C@H]2CC[C@@H](C1)N2S(=O)(=O)N1CC2CCC(C1)N2CCCO)c1cc(C2CC2)on1` [compound 850, 5-cyclopropyl-N-((1R,3r,5S)-8-((8-(3-hydroxypropyl)-3,8-diazabicyclo[3.2.1]octan-3-yl)sulfonyl)-8-azabicyclo[3.2.1]octan-3-yl)isoxazole-3-carboxamide], the results for the IC50 at SMYD3 [1] and at SMYD3 [2] were 6.21 nM and 58.8 nM, respectively.
On to `COCCN(C)C1CCN(S(=O)(=O)N2CC[C@H](NC(=O)c3cc(C4CC4)on3)C[C@@H]2C)CC1` [compound 851, 5-cyclopropyl-N-((2S,4S)-1-((4-((2-methoxyethyl)(methyl)amino)piperidin-1-yl)sulfonyl)-2-methylpiperidin-4-yl)isoxazole-3-carboxamide], for which the IC50 at SMYD3 [1] worked out at 6.44 nM; on SMYD3 [2], 125 nM.
In the case of `CCN(C)C1CCN(S(=O)(=O)N2[C@@H]3CC[C@H]2C[C@@H](NC(=O)c2cc(C4CC4)on2)C3)CC1` [compound 852, 5-cyclopropyl-N-((1R,3r,5S)-8-((4-(ethyl(methyl)amino)piperidin-1-yl)sulfonyl)-8-azabicyclo[3.2.1]octan-3-yl)isoxazole-3-carboxamide], the IC50 on SMYD3 [1] worked out at 6.5 nM; on SMYD3 [2], 114 nM.
Take `CC(C)CNC1CCN(S(=O)(=O)N2[C@@H]3CC[C@H]2C[C@@H](NC(=O)c2cc(C4CC4)on2)C3)CC1` [compound 853, 5-cyclopropyl-N-((1R,3r,5S)-8-((4-(isobutylamino)piperidin-1-yl)sulfonyl)-8-azabicyclo[3.2.1]octan-3-yl)isoxazole-3-carboxamide]: the IC50 was found to be 6.55 nM on SMYD3 [1] and 71 nM at SMYD3 [2].
With `O=C(N[C@H]1C[C@H]2CC[C@@H](C1)N2S(=O)(=O)N1CC2CCC1CN2)c1cc(C2CC2)on1` [compound 855, N-((1R,3r,5S)-8-((2,5-diazabicyclo[2.2.2]octan-2-yl)sulfonyl)-8-azabicyclo[3.2.1]octan-3-yl)-5-cyclopropylisoxazole-3-carboxamide], the figures for the IC50 at SMYD3 [1] and on SMYD3 [2] were 7.06 nM and 68.7 nM, respectively.
For the compound `O=C(N[C@H]1C[C@H]2CC[C@@H](C1)N2S(=O)(=O)N1CCNCC1)c1cc(C2CC2)on1` [compound 856, 5-cyclopropyl-N-((1R,3r,5S)-8-(piperazin-1-ylsulfonyl)-8-azabicyclo[3.2.1]octan-3-yl)isoxazole-3-carboxamide], the IC50 on SMYD3 [1] was 7.09 nM; on SMYD3 [2], 46.7 nM.
With `CC1CC(CS(=O)(=O)N2[C@@H]3CC[C@H]2C[C@@H](NC(=O)c2cc(C4CC4)on2)C3)CC(C)N1` (stereo partly drawn) [compound 857, 5-cyclopropyl-N-((1R,3r,5S)-8-(((2,6-dimethylpiperidin-4-yl)methyl)sulfonyl)-8-azabicyclo[3.2.1]octan-3-yl)isoxazole-3-carboxamide], the IC50 on SMYD3 [1] is 7.09 nM; at SMYD3 [2] it was 130 nM.
For `C[C@H]1C[C@@H](NC(=O)c2cc(C3CC3)on2)CCN1S(=O)(=O)CC[C@H]1CCNC1` [compound 858, 5-cyclopropyl-N-((2S,4S)-2-methyl-1-((2-((R)-pyrrolidin-3-yl)ethyl)sulfonyl)piperidin-4-yl)isoxazole-3-carboxamide], the IC50 at SMYD3 [1] was 7.2 nM; at SMYD3 [2] it was 172 nM.
Taken in the same sequence, the figures for `O=C(N[C@H]1C[C@H]2CC[C@@H](C1)N2S(=O)(=O)[C@H]1CC[C@H](NCCN2CCOCC2)CC1)c1cc(C2CC2)on1` [compound 859, 5-cyclopropyl-N-((1R,3R,5S)-8-(((1r,4R)-4-((2-morpholinoethyl)amino)cyclohexyl)sulfonyl)-8-azabicyclo[3.2.1]octan-3-yl)isoxazole-3-carboxamide] were 7.43 nM and 209 nM.
With `CC(C)CN(C)C1CCN(S(=O)(=O)N2[C@@H]3CC[C@H]2C[C@@H](NC(=O)c2cc(C4CC4)on2)C3)CC1` [compound 860, 5-cyclopropyl-N-((1R,3r,5S)-8-((4-(isobutyl(methyl)amino)piperidin-1-yl)sulfonyl)-8-azabicyclo[3.2.1]octan-3-yl)isoxazole-3-carboxamide], the values for the IC50 on SMYD3 [1] and on SMYD3 [2] were 7.52 nM and 139 nM, respectively.
On to `COCCNC1CCN(S(=O)(=O)N2CC[C@H](NC(=O)c3cc(C4CC4)on3)C[C@@H]2C)CC1` [compound 861, 5-cyclopropyl-N-((2S,4S)-1-((4-((2-methoxyethyl)amino)piperidin-1-yl)sulfonyl)-2-methylpiperidin-4-yl)isoxazole-3-carboxamide], for which the IC50 on SMYD3 [1] came to 7.65 nM; at SMYD3 [2] it was 102 nM.
Taken in the same sequence, the figures for `CCCN(C)C1CCN(S(=O)(=O)N2[C@@H]3CC[C@H]2C[C@@H](NC(=O)c2cc(C4CC4)on2)C3)CC1` [compound 862, 5-cyclopropyl-N-((1R,3r,5S)-8-((4-(methyl(propyl)amino)piperidin-1-yl)sulfonyl)-8-azabicyclo[3.2.1]octan-3-yl)isoxazole-3-carboxamide] were 7.69 nM and 76.5 nM.
On to `CCCNC1CCN(S(=O)(=O)N2[C@@H]3CC[C@H]2C[C@@H](NC(=O)c2cc(C4CC4)on2)C3)CC1` [compound 863, 5-cyclopropyl-N-((1R,3r,5S)-8-((4-(propylamino)piperidin-1-yl)sulfonyl)-8-azabicyclo[3.2.1]octan-3-yl)isoxazole-3-carboxamide], for which the IC50 at SMYD3 [1] was determined as 7.77 nM; on SMYD3 [2], 80 nM.
Taken in the same sequence, the figures for `CN1CC2CC1CN2S(=O)(=O)N1[C@@H]2CC[C@H]1C[C@@H](NC(=O)c1cc(C3CC3)on1)C2` [compound 864, 5-cyclopropyl-N-((1R,3r,5S)-8-((5-methyl-2,5-diazabicyclo[2.2.1]heptan-2-yl)sulfonyl)-8-azabicyclo[3.2.1]octan-3-yl)isoxazole-3-carboxamide] were 8.22 nM and 86.2 nM.
With `CCNC1CCN(S(=O)(=O)N2[C@@H]3CC[C@H]2C[C@@H](NC(=O)c2cc(C4CC4)on2)C3)CC1` [compound 865, 5-cyclopropyl-N-((1R,3r,5S)-8-((4-(ethylamino)piperidin-1-yl)sulfonyl)-8-azabicyclo[3.2.1]octan-3-yl)isoxazole-3-carboxamide], the IC50 was found to be 8.55 nM at SMYD3 [1] and 90.2 nM on SMYD3 [2].
For the compound `CC(C)CN1C2CCC1CN(S(=O)(=O)N1[C@@H]3CC[C@H]1C[C@@H](NC(=O)c1cc(C4CC4)on1)C3)C2` [compound 866, 5-cyclopropyl-N-((1R,3r,5S)-8-((8-isobutyl-3,8-diazabicyclo[3.2.1]octan-3-yl)sulfonyl)-8-azabicyclo[3.2.1]octan-3-yl)isoxazole-3-carboxamide], the IC50 on SMYD3 [1] is 8.63 nM; at SMYD3 [2] it was 201 nM.
In the case of `O=C(N[C@H]1C[C@H]2CC[C@@H](C1)N2S(=O)(=O)N1CC2CCC(C1)N2CCc1ccccc1)c1cc(C2CC2)on1` [compound 867, 5-cyclopropyl-N-((1R,3r,5S)-8-((8-phenethyl-3,8-diazabicyclo[3.2.1]octan-3-yl)sulfonyl)-8-azabicyclo[3.2.1]octan-3-yl)isoxazole-3-carboxamide], the IC50 at SMYD3 [1] worked out at 8.67 nM; at SMYD3 [2], 844 nM.
Taken in the same sequence, the figures for `O=C(N[C@H]1C[C@H]2CC[C@@H](C1)N2S(=O)(=O)N1CCC(NCCCN2CCCC2)CC1)c1cc(C2CC2)on1` [compound 868, 5-cyclopropyl-N-((1R,3r,5S)-8-((4-((3-(pyrrolidin-1-yl)propyl)amino)piperidin-1-yl)sulfonyl)-8-azabicyclo[3.2.1]octan-3-yl)isoxazole-3-carboxamide] were 8.68 nM and 310 nM.
Consider `COCCCNC1CCN(S(=O)(=O)N2[C@@H]3CC[C@H]2C[C@@H](NC(=O)c2cc(C4CC4)on2)C3)CC1` [compound 869, 5-cyclopropyl-N-((1R,3r,5S)-8-((4-((3-methoxypropyl)amino)piperidin-1-yl)sulfonyl)-8-azabicyclo[3.2.1]octan-3-yl)isoxazole-3-carboxamide], for which the figures for the IC50 on SMYD3 [1] and on SMYD3 [2] were 9.05 nM and 117 nM, respectively.
As for `COCCNC1CCN(S(=O)(=O)N2[C@@H]3CC[C@H]2C[C@@H](NC(=O)c2cc(C4CC4)on2)C3)CC1` [compound 870, 5-cyclopropyl-N-((1R,3r,5S)-8-((4-((2-methoxyethyl)amino)piperidin-1-yl)sulfonyl)-8-azabicyclo[3.2.1]octan-3-yl)isoxazole-3-carboxamide], the values for the IC50 at SMYD3 [1] and on SMYD3 [2] were 9.34 nM and 130 nM, respectively.

Values taken from patent US10577363B2, “Substituted piperidine compounds” (EPIZYME, INC., priority 2014, dated 2020).
